Laboratory results published in patent US5616684A, “Cyclic peptides and use thereof” (priority 1991, dated 1997).
Non-standard residues stand in square brackets, D forms with d. Residues, ends and D or L forms follow the SMILES beside them. *: point of attachment. d(aIle) = CC[C@H](C)[C@@H](N)C(=O)O; d2Thi = N[C@H](Cc1cccs1)C(=O)O; dPhg = N[C@@H](C(=O)O)c1ccccc1; Pip = O=C(O)[C@@H]1CCCCN1; Bn = c1ccc(C*)cc1

How the values were obtained:
[1] = molecular target: T1, endothelin receptor A (ETA) (Sus scrofa, UniProt Q29010); experiment: Assay of Affinity for Receptor (1): Binding Activity on ETA Receptor; set-up: key to Binding Activity on ET Receptor (R. act.) ETA: relative binding activity; reference cyclic pentapeptide = 1.0; conditions: porcine heart membrane fraction; for Binding Activity on ET Receptor (R. act.) ETA: specific activity, binding activity of cyclo[-D-Glu-Ala-D-aIle-Leu-D-Trp-] taken as 1.0, 125I-labeled endothelin-1, 25° C., 1 hour
T1 construct: A membrane fraction prepared from the porcine heart; from tissue; host or cells: porcine heart membrane fraction
T1 sequence (Q29010 21-427): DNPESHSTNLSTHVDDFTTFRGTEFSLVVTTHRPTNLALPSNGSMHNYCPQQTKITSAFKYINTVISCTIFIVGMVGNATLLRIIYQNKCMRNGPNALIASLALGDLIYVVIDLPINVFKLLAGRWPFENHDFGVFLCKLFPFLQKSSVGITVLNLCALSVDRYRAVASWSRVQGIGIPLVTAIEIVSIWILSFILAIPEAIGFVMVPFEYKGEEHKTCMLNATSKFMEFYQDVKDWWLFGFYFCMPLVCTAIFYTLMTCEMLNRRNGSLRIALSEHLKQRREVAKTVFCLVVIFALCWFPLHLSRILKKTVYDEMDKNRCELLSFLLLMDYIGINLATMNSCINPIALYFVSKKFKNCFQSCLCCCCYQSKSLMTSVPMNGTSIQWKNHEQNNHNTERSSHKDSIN
Protocol: Assay of Affinity for Receptor (1) . . . Binding Activity on ETA Receptor
A membrane fraction prepared from the porcine heart was diluted to 0.15 mg/ml by using a buffer solution for assay, and 100 μl of the resulting suspension of the membrane fraction was poured into each assay tube to use for assay. To this suspension of the membrane fraction was added 2 μl of 5 nM ^125 I-labeled endothelin-1 solution. Further, 3 μl of a test peptide solution was added thereto, followed by incubation at a temperature of 25° C. for 1 hour. Then, the resulting suspension was diluted with 900 μl of the buffer solution for assay cooled with ice, and thereafter separated into a supernatant and a precipitate by centrifugation at 12,000×g for 10 minutes. Cell membranes and an endothelin receptor A (ETA) embedded therein were contained in the precipitate, and radioactive iodine-labeled endothelin combined with the receptor was also recovered in the precipitate. Accordingly, the amount of radioactive iodine-labeled endothelin combined with the endothelin receptor A (ETA) was determined by measuring the amount of radioactive iodine contained in the precipitate with a gamma-ray counter. The cyclic pentapeptide described in Japanese Patent Application No. 2-413828/1990, cyclo[-D-Glu-Ala-D-aIle-Leu-D-Trp-], was used as a control compound. The numerical value of ETA shown in Table 1 is the value of specific activity, taking the binding activity of this cyclic pentapeptide on the receptor A as 1.0. The binding activity (IC50) of this cyclic pentapeptide on the ETA receptor is 2×10^-6 M.

[2] = molecular target: T2, endothelin receptor B (ETB) (Bos taurus, UniProt P28088); experiment: Assay of Affinity for Receptor (2): Binding Activity on ETB Receptor *1; set-up: key: relative specific activity, Example 8 compound = 100; conditions: specific activity, binding activity of the compound of Example 8 taken as 100; bovine brain membrane fraction, 125I labeled endothelin-1, 25° C., 1 hour
T2 construct: A membrane fraction prepared from the bovine brain; from tissue; host or cells: bovine brain membrane fraction
T2 sequence (P28088 27-441): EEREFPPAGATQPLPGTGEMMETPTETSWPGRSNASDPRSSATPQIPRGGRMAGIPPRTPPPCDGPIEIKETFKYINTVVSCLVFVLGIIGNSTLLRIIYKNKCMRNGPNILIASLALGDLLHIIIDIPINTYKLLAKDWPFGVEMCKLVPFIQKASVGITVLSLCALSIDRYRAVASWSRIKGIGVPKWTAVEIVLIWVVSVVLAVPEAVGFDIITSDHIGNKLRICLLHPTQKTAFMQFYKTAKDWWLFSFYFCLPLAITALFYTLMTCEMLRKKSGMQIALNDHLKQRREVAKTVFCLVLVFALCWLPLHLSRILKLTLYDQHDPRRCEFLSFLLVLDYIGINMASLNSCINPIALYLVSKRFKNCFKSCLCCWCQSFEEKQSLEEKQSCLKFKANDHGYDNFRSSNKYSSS
Protocol: Assay of Affinity for Receptor (2) . . . Binding Activity on ETB Receptor *1
A membrane fraction prepared from the bovine brain was diluted to 0.15 mg/ml by using a buffer solution for assay, and 100 μl of the resulting suspension of the membrane fraction was poured into each assay tube to use for assay. To this suspension of the membrane fraction was added 2 μl of 5 nM ^125 I labeled endothelin-1 solution. Further, 3 μl of a test peptide solution was added thereto, followed by incubation at a temperature of 25° C. for 1 hour. Then, the resulting suspension was diluted with 900 μl of the buffer solution for assay cooled with ice, and thereafter separated into a supernatant and a precipitate by centrifugation at 12,000×g for 10 minutes. Cell membranes and an endothelin receptor B (ETB) embedded therein were contained in the precipitate, and radioactive iodine-labeled endothelin bound to the receptor was also recovered in the precipitate. Accordingly, the amount of radioactive iodine-labeled endothelin bound to the endothelin receptor B (ETB) was determined by measuring the amount of radioactive iodine contained in the precipitate with a gamma-ray counter. The numerical value of ETB shown in Table 1 is the value of specific activity, taking the binding activity of the compound of Example 8 on the receptor B as 100.

[3] = system: ETB receptor (guinea pig kidney crude receptor membrane fraction); experiment: ETB Radio Receptor Assay *2; type: binding; conditions: relative activity (Example 8 given as 100), 125I-endothelin-1, 37° C., 90 minutes
Protocol: ETB Radio Receptor Assay *2
In the endothelin radio receptor assay, guinea pigs' kidneys were used. Guinea pigs (Std Hartrey, male 250 g, Japan SLC Ltd.) were made to have a cerebral concussion and sacrificed by bleeding from carotid arteries to pick up the kidneys and removed fat therefrom to prepare the kidneys. The obtained kidneys were sliced and homogenized by politron homogenizer in 20 ml of 50 mM Tris-HCl buffer [pH 7.4; 20 mM NaHCO3, 0.1 mM PMSF (Phenylmethylsulfonyl Fluoride), 1 mM EDTA (Ethylenediaminetetraacetic acid)] per one kidney. The homogenized kidney was applied to a centrifugation at 1,000×g for 15 minutes and the supernatant was further applied to a centrifugation for 20 minutes at 30,000×g. The resulting precipitate was twice washed with 50 mM Tris-HCl buffer (pH 7.4) containing 0.1 mM PMSF, 1 mM EDTA. The resultant was stored at -80 ° C. as a crude receptor membrane fraction and was used as the suspension in the following buffer when necessary.
740 Bq of ^125 I-endothelin-1 (81.4 TBq/mmol, Du Pont, USA) as a radio ligand, the crude membrane fraction (2.1 μg protein) and samples were added to the following buffer. The reaction was performed at 37° C., for 90 minutes in 0.2 ml of the buffer [50 mM Tris-HCl buffer (pH 7.4) containing 0.1 mM PMSF, 1 mM EDTA, 0.2% bovine serum albumin].
The reaction was stopped by fast filtration on a glass filter (GF/B, Wattman, USA) by Cell Harvestor (290 PHD, Cambridge-Technology, Great Britain), and the filter was three times washed with 50 mM Tris-HCl buffer (pH 7.4). Radio activity remained on the filter was assayed by a gamma counter.

| SMILES | Binding Activity on ET Receptor (R. act.) ETA [1] | Binding Activity on ET Receptor (R. act.) ET8 *1 [2] | Binding Activity on ET Receptor (R. act.) ET8 *2 [3] | IC50 ([1]; 125I-labeled endothelin-1) |
| --- | --- | --- | --- | --- |
| CC(C)C[C@@H]1NC(=O)[C@H](Cc2c[nH]c3ccccc23)NC(=O)[C@@H](CC(=O)O)NC(=O)[C@@H](Cc2c[nH]c3ccccc23)NC(=O)[C@H](CC(C)C)NC(=O)[C@@H](CC(C)C)NC1=O [Example 35, Cyclo[--D--Asp--Trp--Leu--D--Leu--Leu--D--Trp--]] (cyclo(L[dL]L[dW][dD]W)) | 9.1 | 52 | 24 |  |
| CC(C)C[C@@H]1NC(=O)[C@@H](CC(C)C)NC(=O)[C@H](CC(=O)O)NC(=O)[C@@H]2CCCN2C(=O)[C@@H](CC(=O)O)NC(=O)[C@@H](Cc2c[nH]c3ccccc23)NC1=O [Example 9, cyclo[-D-Asp-Pro-Asp-D-Leu-Leu-D-Trp-]] (cyclo(D[dL]L[dW][dD]P)) | 56 | 140 | 67 |  |
| CC(C)C[C@@H]1NC(=O)[C@@H](Cc2cccs2)NC(=O)[C@H](CC(=O)O)NC(=O)[C@H](Cc2c[nH]c3ccccc23)NC(=O)[C@@H](CC(=O)O)NC(=O)[C@@H](Cc2c[nH]c3ccccc23)NC1=O [Example 50, Cyclo[--D--Asp--Trp--Asp--D--Thi--Leu--D--Trp--]] (cyclo(D[d2Thi]L[dW][dD]W)) | 4 | 350 | 57 |  |
| CC(C)C[C@@H]1NC(=O)[C@@H](CC(C)C)NC(=O)[C@H](COCc2ccccc2)NC(=O)[C@H](Cc2c[nH]c3ccccc23)NC(=O)[C@@H](CC(=O)O)NC(=O)[C@@H](Cc2c[nH]c3ccccc23)NC1=O [Example 38, Cyclo[--D--Asp--Trp--Ser(Bzl)--D--Leu--Leu--D--Trp--]] (cyclo(L[dW][dD]WS(Bn)[dL])) | 13 | 66 | 170 |  |
| CC(C)C[C@@H]1NC(=O)[C@@H](CC(C)C)NC(=O)[C@H](CCC(=O)O)NC(=O)[C@H](Cc2c[nH]c3ccccc23)NC(=O)[C@@H](CC(=O)O)NC(=O)[C@@H](Cc2c[nH]c3ccccc23)NC1=O [Example 34, Cyclo[--D--Asp--Trp--Glu--D--Leu--Leu--D--Trp--]] (cyclo(E[dL]L[dW][dD]W)) | 20 | 77 | 44 |  |
| CC(C)C[C@@H]1NC(=O)[C@@H](CC(C)C)NC(=O)[C@H](CC(=O)O)NC(=O)[C@@H]2CCCCN2C(=O)[C@@H](CC(=O)O)NC(=O)[C@@H](Cc2c[nH]c3ccccc23)NC1=O [Example 26, Cyclo[--D--Asp--Pip--Asp--D--Leu--Leu--D--Trp--]] (cyclo(D[dL]L[dW][dD][Pip])) | 25 | 38 | 73 |  |
| CC(C)C[C@@H]1NC(=O)[C@@H](CC(C)C)NC(=O)[C@H](CO)NC(=O)[C@H](Cc2c[nH]c3ccccc23)NC(=O)[C@@H](CC(=O)O)NC(=O)[C@@H](Cc2c[nH]c3ccccc23)NC1=O [Example 37, Cyclo[--D--Asp--Trp--Ser--D--Leu--Leu--D--Trp--]] (cyclo(L[dW][dD]WS[dL])) | 24 | 22 | 18 |  |
| CC(C)C[C@@H]1NC(=O)[C@@H](C(C)C)NC(=O)[C@H](CC(=O)O)NC(=O)[C@H](Cc2c[nH]c3ccccc23)NC(=O)[C@@H](CC(=O)O)NC(=O)[C@@H](Cc2c[nH]c3ccccc23)NC1=O [Example 52, Cyclo[--D--Asp--Trp--Asp--D--Val--Leu--D--Trp--]] (cyclo(D[dV]L[dW][dD]W)) | 75 | 240 | 100 |  |
| CC(C)C[C@@H]1NC(=O)[C@@H](c2ccccc2)NC(=O)[C@H](CC(=O)O)NC(=O)[C@H](Cc2c[nH]c3ccccc23)NC(=O)[C@@H](CC(=O)O)NC(=O)[C@@H](Cc2c[nH]c3ccccc23)NC1=O [Example 45, Cyclo[--D--Asp--Trp--Asp--D--Phg--Leu--D--Trp--]] (cyclo(D[dPhg]L[dW][dD]W)) | 87 | 74 | 180 |  |
| CC(C)C[C@@H]1NC(=O)[C@@H](Cc2ccccc2)NC(=O)[C@H](CC(=O)O)NC(=O)[C@H](Cc2c[nH]c3ccccc23)NC(=O)[C@@H](CC(=O)O)NC(=O)[C@@H](Cc2c[nH]c3ccccc23)NC1=O [Example 60, Cyclo[--D--Asp--Trp--Asp--D--Phe--Leu--D--Trp--]] (cyclo(D[dF]L[dW][dD]W)) | 1 | 210 | 44 |  |
| CC[C@H](C)[C@H]1NC(=O)[C@H](C)NC(=O)[C@@H](CCC(=O)O)NC(=O)[C@@H](Cc2c[nH]c3ccccc23)NC(=O)[C@H](CC(C)C)NC1=O [cyclo[-D-Glu-Ala-D-aIle-Leu-D-Trp-], reference compound] (cyclo(A[d(aIle)]L[dW][dE])) | 1.0 | less than 1 |  | 2 µM |
